Test results as given in US20240252582A1, “METHODS FOR TREATING AMBLYOPIA” (City University of Hong Kong, priority 2023, published 2024).
Non-standard residues stand in square brackets, D forms with d. Phe(3-Br) = N[C@@H](Cc1cccc(Br)c1)C(=O)O; Nle = CCCC[C@H](N)C(=O)O

Tests used:
[1] = tested on: juvenile C57BL/6 mice model of amblyopia (LTMD); assay: In-vivo electrophysiology (spike recording in V1), contralateral bias index after long-term monocular deprivation
Method: The mice are anesthetized through the application of a K-X combination during the surgical preparation. The body temperatures of the mice are maintained at 37° C. by use of a homeostatically controlled heating pad during the surgery. Following the induction of anesthesia, each mouse is mounted on a stereotaxic instrument (RWD Life Science, Shenzhen, China) and an incision is made along the midline of the head. The stereotaxic instrument is adjusted to place the bregma and lambda points of the skull on a flat skull surface (anteroposterior: −3.2 mm to −4.0 mm; mediolateral: 3.0-3.8 mm, relative to bregma). A piece of the scalp over the V1 is removed to expose the cortex, and a bone screw is fixed in the frontal bone as the reference electrode. The exposed cortical surface is then covered with extracellular saline (in mM: 125 NaCl, 5 KCl, 10 glucose, 10 4-(2-hydroxyethyl)-1-piperazineethanesulphonicacid [HEPES], and 2 CaCl2; pH adjusted to 7.4) to prevent drying of the surface. The electrode is lowered into the brain to an appropriate depth (V1≤1 mm) and is allowed to settle for 30 min before recording is begun. In each mouse, 3-4 separate penetrations are spaced evenly at least 200 μm apart across the binocular region of V1. The eyes are kept moist with ophthalmic lubricant ointment until recording to prevent drying while enabling clear optical transmission. At the end of the recording, the mice are euthanized by injection of an overdose of Dorminal (300 mg/kg).
Visual stimuli of sinusoidal drifting gratings with increasing orientation angles(0-330°) and 0.4 cpd are presented in random order to alternate eyes. The spike recordings are performed with the use of a polyimide-coated platinum/iridium (70:30) ribbon microelectrode array (Clunbury Scientific LLC, USA). The tip resistances are 30-50 kΩ. The A-M Systems 3600 (A-M Systems, USA) and CED Micro 1401-3 (Cambridge Electronic Design, UK) instruments are used as the amplifier and data acquisition system, respectively. The signals are sampled at 25 kHz and bandpass-filtered at 300 Hz-3 KHz for spike, amplified, and fed to spike2 software (Cambridge Electronic Design, UK). Offline analysis is performed using MATLAB (R2020b, Math Works, USA). To begin, the raw data are transformed into a MATLAB-compatible format. Spike sorting is used to distinguish various units collected at the same time in the spike data. Wave clus, a MATLAB tool, is used to categorize the units based on the characteristics of their waveforms.
The neuronal response in the Visual cortex (V1) is recorded extracellularly, while the same visual stimulus with varied orientation is presented to either of the eyes alternatively, and the relative strength of the response is determined.
To quantify the deprivation effect, the inventors calculate the contralateral bias index (CBI) from spikes (response from the single neuron) using the following formula:
where NT is the total number of units and NX is the number of units with OD scores equal to x (x=1, 2, 3, 5, 6, 7). For the sum of the number of cells in each category is used to calculate the CBI for each animal.
FIGS. 1A and 1B, show the timeline of the experimental setup, i.e. LTMD, surgery, dosing, and in-vivo electrophysiology used in the second and third experiments. In the second experiments, in juvenile after LTMD, saline or CCK8s (Cholecystokinin octapeptide (Tocris Bioscience, UK): 1 ul each day (10 ng/ul), Cholecystokinin octapeptide (Tocris Bioscience, UK)) is infused (treatment) for 15 days (from P42 to P57) in V1. […] The ipsilateral eye is dominated. Contrarily, in the group treated with CCK8s (infusion in V1), the ocular dominance shifts from the ipsilateral eye towards the contralateral eye (CBI=0.65, 12 animals) (FIG. 1G).
In juvenile after LTMD, 3r1 (a type of CCKBR agonist, Guangzhou Institute of Biomedicine and Health, affiliated with the Chinese Academy of Sciences, Guangzhou, China) (4.18 uM) is administered intraperitoneally (i.p). […]

[2] = tested on: juvenile C57BL/6 mice model of amblyopia (LTMD); assay: Visual water behavioral test of visual acuity after long-term monocular deprivation; assay type: in vivo; settings: for Visual acuity: Long-term MD (P21-P42) mice, WT adult 0.44; for Performance (percentage accuracy) during training after treatment / Cutoff (70% accuracy) achieved during testing / Visual acuity, Mean±SEM (FIG. 2G, post hoc analysis): juvenile LTMD mice; for Performance (percentage accuracy) during training after treatment: cutoff 70% accuracy (FIG. 2F); for Visual acuity, Mean±SEM (FIG. 2G, post hoc analysis): WT 0.44±0.02 (P>0.05)
Description: Amblyopia patients usually have poor visual acuity. It is believed that the method according to the invention can reverse the lost visual acuity in amblyopia patients. FIGS. 2A-2G illustrate the assessment of visual acuity using visual water maze. Dotted line represents the 70% accuracy as cutoff. As shown in FIGS. 2C-2E, WT adult (P60) mice with no MD show cutoff at cpd 0.45 achieved during testing by all the animals (12 animals). After LTMD in juvenile followed by saline (infusion)/CCK8s treatment, the mice show cutoff at cpd 0.30 and 0.52 respectively achieved during testing by all the animals (11 animals/12 animals respectively). After LTMD in juvenile followed by saline (i.p)/CCKBR agonist (3r1) treatment, the mice show cutoff at cpd 0.33 and 0.46 respectively achieved during testing by all the animals (11 animals/15 animals respectively). […] The performance of the animals during training in WT adult (P60) with no MD, before and after remained unchanged. After LTMD in juvenile, the performance of animals during training before and after saline (infusion) treatment remained unchanged and the performance of animals during training before and after CCK8s treatment show the difference. […] After LTMD in juvenile, the performance of animals during training before and after saline (i.p) treatment remained unchanged and the performance of animals during training before and after CCK-agonist (3r1) treatment show the difference. […] A significant difference is observed between saline (infusion) and CCK8s treated animals (P<0.001) and in between saline (i.p) and CCKBR agonist (3r1) (P<0.001). No significant difference in visual acuity observed in adult (P60), no MD and juvenile LTMD following CCK8s and CCKBR agonist (3r1) treated animals (P>0.05). Error bars in FIG. 2G indicate the standard error of the mean (SEM).
Visual water behavioral test is performed to show visual acuity improvement following long-term monocular deprivation after administration of CCK8s and CCKBR agonist (3r1). Each animal learns quickly to associate swimming to the escape platform placed below the screen displaying grating stimuli during pre-training phase and post-training phase. Animals of all groups learn serendipitously during training to swim to the end of the divider, and then look at each screen several times before making their choice.
FIGS. 2A and 2B show the behavioural experimental design of this example: (CCK8s) infusion in V1 and CCKBR agonist (3r1)(i.p). The testing criterion in the training phase (from P42 to P47) is reached for all mice within four sessions (32 trials). Average performance above 70% accuracy is maintained for all mice of different groups (FIG. 2F). The visual acuity of the groups is illustrated in FIGS. 2C-2E.

Substance | Contralateral bias index (CBI) ([1]; juvenile LTMD mice, i.p., 4 doses on alternate days for 7 days, 0.0122890 mg/kg per dose, saline CBI=0.31) | Contralateral bias index (CBI) ([1]; juvenile LTMD mice, i.p., 8 doses on alternate days for 14 days, 0.0122890 mg/kg per dose, saline CBI=0.31) | Histogram of V1 cells, eye response bias ([1]; juvenile LTMD mice, treatment for fourteen days (FIG. 1J)) | Histogram of V1 cells, eye response bias ([1]; juvenile LTMD mice, treatment for seven days (FIG. 1I)) | Visual acuity ([2]; i.p., saline (i.p) 0.33) | Performance (percentage accuracy) during training after treatment [2] | Cutoff (70% accuracy) achieved during testing ([2]; i.p., saline (i.p) 0.33, WT 0.45 (FIG. 2E)) | Visual acuity, Mean±SEM (FIG. 2G, post hoc analysis) ([2]; i.p., saline (i.p) 0.33±0.01 (P<0.001)) | Contralateral bias index (CBI) ([1]; juvenile LTMD (P21-P42) mice, infusion in V1, 1 ul each day (10 ng/ul), 15 days (P42-P57), saline CBI=0.33) | Histogram of V1 cells, eye response bias ([1]; juvenile LTMD mice, infusion 15 days (FIG. 1G)) | Visual acuity ([2]; infusion, saline (infusion) 0.3) | Visual acuity, Mean±SEM (FIG. 2G, post hoc analysis) ([2]; infusion, saline 0.309±0.01 (P<0.001)) | Cutoff (70% accuracy) achieved during testing ([2]; infusion, saline (infusion) 0.30, WT 0.45 (FIG. 2D))
Ac-W[Nle]D[Phe(3-Br)]-NH2 [3r1] | 0.66 | 0.68 | strong contralateral eye bias | strong contralateral eye bias | 0.46 c/d | reaches beyond the cutoff | 0.46 cpd | 0.46±0.02 c/d | – | – | – | – | –
Cholecystokinin octapeptide [CCK8s, reference compound] | – | – | – | – | – | reaches beyond the cutoff | – | – | 0.65 | strong contralateral eye bias | 0.5 c/d | 0.5±0.01 c/d | 0.52 cpd
